From patent US20130005743A1, “New positive allosteric modulators of nicotinic acetylcholine receptor” (H. Lundbeck A/S, priority 2011, published 2013)

Target: T1, human α7 receptor (Homo sapiens, UniProt P36544)
T1 construct: host or cells: rat GH4C1 cell line
Experiment: α7 NNR flux assay (FDSS Ca assay, positive allosteric modulation of acetylcholine response)
Assay type: cell-based
Conditions: human α7 receptor stably expressed in rat GH4C1 cells; acetylcholine 20 μM; % modulation relative to PNU-120596 set to 100%
Experimental: The nicotinic acetylcholine receptor α7 is a calcium-permeable ion channel, whose activity can be measured by over expression in mammalian cells or oocytes. In this version of the assay, the human α7 receptor is stably expressed in the rat GH4C1 cell line. The assay was used to identify positive allosteric modulators (PAMs) of the α7 receptor. Activation of the channel was measured by loading cells with the calcium-sensitive fluorescent dye. Calcium-4 (Assay kit from Molecular Devices), and then measuring real-time changes, in fluorescence upon treatment with test compounds.
The cell line ChanClone GH4C1-nAChRalpha7 from Genionics was seeded from frozen stock in 384-well plates in culture media 2-3 days before experiment to form an approximately 80% confluent layer on the day of experiment.
The cell culture were split into “22.5 cm×22.5 cm”-plates with approximately 100×10^3 cells/cm^2. After four days incubation in a humidified incubator at 37° C. and 5% CO2, it had grown to an 80-90% confluent layer, and the cells were harvested.
Two or three days before the experiment the cells were seeded in 384 well plates from Greiner bio-one (781946, CELLCOAT, Poly-D-Lysine, black, μClear).
The cells were seeded in 384 well plates with 30 μL/well (30000 cells/well) while stirring the cell suspension or otherwise preventing the cells from precipitating.
The loading buffer was 5% v/v Calcium-4 Kit and 2.5 mM Probenecid in assay buffer.
Culture media was removed from the cell plates and 20 μL loading buffer was added in each well. The cell plates were placed in trays and incubated 90 minutes in the incubator (37° C.). Thereafter the plates were incubated 30 minutes at room temperature, still protected from light.
The assay buffer was HBSS with 20 mM HEPES, pH 7.4 and 3 mM CaCl2.
[…] 10 mM compound solution in DMSO was diluted in 50 μL assay buffer. The final test concentrations in the cell plates were 20-10-5-2.5-1.25-0.625-0.312-0.156-0.078-0.039 μM. Assay buffer and 3 μM PNU-120596 were used for control. The agonist acetylcholine was added to a final concentration of 20 μM (˜EC100). In the FDSS7000 the Ex480-Em540 was measured with 1 second intervals. The baseline was made of 5 frames before addition of test compounds, and 95 frames more were made before addition of acetylcholine. The measurement stopped 30 frames after the 2nd addition. Raw data for each well were collected as “the maximum fluorescence count” in the interval 100-131 seconds and as “the average fluorescence count” in the interval 96-100 seconds. The positive allosteric modulation in the 2nd addition was the enhancement of agonist response with test compound compared to agonist alone.
Results were calculated as % modulation of test compound compared to the reference PNU-120596 set to 100%.

T1 sequence (P36544 23-502): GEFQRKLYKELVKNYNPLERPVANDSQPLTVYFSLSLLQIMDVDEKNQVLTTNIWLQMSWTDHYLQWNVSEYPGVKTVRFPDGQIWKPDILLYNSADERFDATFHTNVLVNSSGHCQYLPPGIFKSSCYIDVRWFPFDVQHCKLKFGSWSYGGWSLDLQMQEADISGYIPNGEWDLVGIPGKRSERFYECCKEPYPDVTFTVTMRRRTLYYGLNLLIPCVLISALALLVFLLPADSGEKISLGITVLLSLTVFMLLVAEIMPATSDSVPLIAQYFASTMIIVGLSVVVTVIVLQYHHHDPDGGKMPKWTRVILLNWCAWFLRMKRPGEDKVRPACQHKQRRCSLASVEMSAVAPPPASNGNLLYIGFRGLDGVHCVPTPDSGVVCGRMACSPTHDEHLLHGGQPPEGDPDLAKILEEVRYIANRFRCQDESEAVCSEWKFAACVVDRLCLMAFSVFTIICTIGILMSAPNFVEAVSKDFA

COc1ccc(-n2nc(C)c3c(C(=O)Nc4c(C)cc(C)nc4C)cc(C)nc32)cc1 [Compound 18, 1-(4-Methoxy-phenyl)-3,6-dimethyl-1H-pyrazolo[3,4-b]pyridine-4-carboxylic acid (2,4,6-trimethyl-pyridin-3-yl)-amide]
EC50: 6.5 µM

COc1ccc(-n2nc(C)c3c(C(=O)Nc4cnccc4C)cc(C)nc32)cc1 [Compound 8, 1-(4-Methoxy-phenyl)-3,6-dimethyl-1H-pyrazolo[3,4-b]pyridine-4-carboxylic acid (4-methyl-pyridin-3-yl)-amide]
EC50: 5.1 µM

COc1ccc(-n2nc(C)c3c(C(=O)Nc4c(C)ccnc4C)ccnc32)cc1 [Compound 15, 1-(4-Methoxy-phenyl)-3-methyl-1H-pyrazolo[3,4-b]pyridine-4-carboxylic acid (2,4-dimethyl-pyridin-3-yl)-amide]
EC50: 6 µM

COc1ccc(-n2nc(C)c3c(C(=O)Nc4c(C)ncnc4C)cc(C)nc32)cc1 [Compound 12, 1-(4-Methoxy-phenyl)-3,6-dimethyl-1H-pyrazolo[3,4-b]pyridine-4-carboxylic acid (4,6-dimethyl-pyrimidin-5-yl)-amide]
EC50: 4.9 µM

Cc1cc(C(=O)Nc2c(C)ccnc2C)c2c(C)nn(-c3ccc(OC(F)(F)F)cc3)c2n1 [Compound 17, 3,6-Dimethyl-1-(4-trifluoromethoxy-phenyl)-1H-pyrazolo[3,4-b]pyridine-4-carboxylic acid (2,4-dimethyl-pyridin-3-yl)-amide]
EC50: 11 µM

Cc1cc(C(=O)Nc2c(C)ccnc2C)c2c(C)nn(-c3ccccc3)c2n1 [Compound 2, 3,6-Dimethyl-1-phenyl-1H-pyrazolo[3,4-b]pyridine-4-carboxylic acid (2,4-dimethyl-pyridin-3-yl)-amide]
EC50: 3.6 µM

COc1ccc(-n2nc(C)c3c(C(=O)Nc4c(C)ccnc4C)cc(C)nc32)cn1 [Compound 16, 1-(6-Methoxy-pyridin-3-yl)-3,6-dimethyl-1H-pyrazolo[3,4-b]pyridine-4-carboxylic acid (2,4-dimethyl-pyridin-3-yl)-amide]
EC50: 5.5 µM

Cc1ccc(-n2nc(C)c3c(C(=O)Nc4c(C)ccnc4C)cc(C)nc32)cc1 [Compound 6, 3,6-Dimethyl-1-p-tolyl-1H-pyrazolo[3,4-b]pyridine-4-carboxylic acid (2,4-dimethyl-pyridin-3-yl)-amide]
EC50: 2.5 µM

COc1ccc(-n2ncc3c(C(=O)Nc4c(C)ccnc4C)cc(C)nc32)cc1 [Compound 11, 1-(4-Methoxy-phenyl)-6-methyl-1H-pyrazolo[3,4-b]pyridine-4-carboxylic acid (2,4-dimethyl-pyridin-3-yl)-amide]
EC50: 2.8 µM

Cc1ccc(-n2nc(C)c3c(C(=O)Nc4c(C)ccnc4C)cc(C)nc32)cn1 [Compound 10, 3,6-Dimethyl-1-(6-methyl-pyridin-3-yl)-1H-pyrazolo[3,4-b]pyridine-4-carboxylic acid (2,4-dimethyl-pyridin-3-yl)-amide]
EC50: 7.2 µM

Cc1cc(C(=O)Nc2c(C)cncc2C)c2c(C)nn(-c3ccccc3)c2n1 [Compound 3, 3,6-Dimethyl-1-phenyl-1H-pyrazolo[3,4-b]pyridine-4-carboxylic acid (3,5-dimethyl-pyridin-4-yl)-amide]
EC50: 4.1 µM

COc1ccc(-n2nc(C)c3c(C(=O)Nc4cnccc4N(C)C)cc(C)nc32)cc1 [Compound 30, 1-(4-Methoxy-phenyl)-3,6-dimethyl-1H-pyrazolo[3,4-b]pyridine-4-carboxylic acid (4-dimethylamino-pyridin-3-yl)-amide]
EC50: 2.7 µM

COc1ccc(-n2nc(C)c3c(C(=O)Nc4cccnc4C)cc(C)nc32)cc1 [Compound 5, 1-(4-Methoxy-phenyl)-3,6-dimethyl-1H-pyrazolo[3,4-b]pyridine-4-carboxylic acid (2-methyl-pyridin-3-yl)-amide]
EC50: 3.3 µM

Cc1cc(C(=O)Nc2c(C)ccnc2C)c2c(C)nn(-c3ccc(C#N)cc3)c2n1 [Compound 14, 1-(4-Cyano-phenyl)-3,6-dimethyl-1H-pyrazolo[3,4-b]pyridine-4-carboxylic acid (2,4-dimethyl-pyridin-3-yl)-amide]
EC50: 6.3 µM
